# Test results taken from US10577349B2 (Sanford Burnham Prebys Medical Discovery Institute, priority 2015, dated 2020).
# How the values were obtained:
# [1] = biological target: HCV cap-dependent translation; experiment: In vitro translation assay, FF-HCV-Ren construct, cap-dependent (FF luciferase); assay type: biochemical, rabbit reticulocyte lysates
# Text: (§1) The bicistronic dual-reporter constructs that contain the firefly luciferase (FF) sequence, followed by the (encephalomyocarditis virus) EmCV and Hepatitis C virus (HCV) IRES, respectively, and the Renilla reniformis (Ren) luciferase sequence, has been previously described (Bordeleau Me., et al. Functional characterization of IRESes by an inhibitor of the RNA helicase eIF4A. Nature chemical biology. 2006; 2:213-20). For measurement of translation from the FF-EmCV-Ren and FF-HCV-Ren constructs, rabbit reticulocyte lysates (RRL) (Life Technologies, Carlsbad, Calif., USA) and the Dual-Glo (Promega, Madison, Wis., USA) read-outs were chosen. Two μl rabbit reticulocyte lysates mixed with Translation Mix 20× (-Met) and Translation Mix 20× (-Leu) in a ratio of 1:1 were pre-incubated with test compounds in 1536-well plates for 1 h at room temperature. Then, translation was started by adding 0.1 μg RNA per well and incubated for 2 h at 30° C. After a short chill phase, 2.5 μl Dual-Glo reagent 1 was added to each well and incubated for 10 min before reading the FF luciferase activity with the ViewLux uHTS Microplate Imager (Perkin Elmer, Waltham, Mass., USA). Directly after, 2.5 μl Dual-Glo reagent 2 was dispensed to each well and incubated at room temperature for 10 min before reading the Ren luciferase activity on the ViewLux. To exclude the possibility that test compounds interfere with any of the luciferase activities, a counter assay was performed in which the compounds were added after the completion of the in vitro translation.
# [2] = biological target: HCV cap-independent translation; experiment: In vitro translation assay, FF-HCV-Ren construct, cap-independent (Ren luciferase); assay type: biochemical, rabbit reticulocyte lysates
# Text: as §1
# A375 = experiment: 48 h Cytotoxicity A375; assay type: cell-based; details: Homo sapiens, A-375
# [3] = biological target: EmCV Cap-dependent translation; experiment: In vitro translation assay, FF-EmCV-Ren construct, cap-dependent (FF luciferase); assay type: biochemical, rabbit reticulocyte lysates
# Text: as §1
# [4] = biological target: EmCV Cap-independent translation; experiment: In vitro translation assay, FF-EmCV-Ren construct, cap-independent (Ren luciferase); assay type: biochemical, rabbit reticulocyte lysates
# Text: as §1
Compound,IC50 [1],IC50 [2],IC50 (A375),IC50 [3],IC50 [4]
"O=C(/C=C/c1nc2ccccc2[nH]1)c1c(-c2ccccc2)c2cccnc2[nH]c1=O [Compound 25, 3-(3-1H-Benzoimidazol-2-yl-acryloyl)-4-phenyl-1H-[1,8]naphthyridin-2-one]",10 to 20 µM,> 20 µM,10 to 20 µM,10 to 20 µM,10 to 20 µM
"O=C(/C=C/c1cncnc1)c1c(-c2ccccc2)c2cc(Cl)ccc2[nH]c1=O [Compound 37, 6-Chloro-4-phenyl-3-(3-pyrimidin-5-yl-acryloyl)-1H-quinolin-2-one]",2 to 10 µM,2 to 10 µM,2 to 10 µM,2 to 10 µM,2 to 10 µM
"Cc1ccnc(-c2c(C(=O)/C=C/c3cncc(F)c3)c(=O)[nH]c3ccc(Cl)cc23)c1 [Compound 93, 3-[(2E)-3-(5-fluoro(3-pyridyl))prop-2-enoyl]-6-chloro-4-(4-methyl(2-pyridyl))hydroquinolin-2-one]",> 20 µM,> 20 µM,< 2 µM,> 20 µM,10 to 20 µM
"Nc1ccc2[nH]c(=O)c(C(=O)/C=C/c3nc4ccccc4[nH]3)c(-c3ccccc3)c2c1 [Compound 15, 6-Amino-3-(3-1H-benzoimidazol-2-yl-acryloyl)-4-phenyl-1H-quinolin-2-one]",10 to 20 µM,> 20 µM,> 20 µM,10 to 20 µM,10 to 20 µM
"Cn1c(/C=C/C(=O)c2c(-c3ccccc3)c3cc(Cl)ccc3[nH]c2=O)cc2ccccc21 [Compound 29, 6-Chloro-3-[3-(1-methyl-1H-indol-2-yl)-acryloyl]-4-phenyl-1H-quinolin-2-one]",10 to 20 µM,> 20 µM,< 2 µM,> 20 µM,> 20 µM
N#Cc1ccc(-c2c(C(=O)/C=C/c3cncc(F)c3)c(=O)[nH]c3ccc(Cl)cc23)cc1 [Compound 89],2 to 10 µM,2 to 10 µM,2 to 10 µM,2 to 10 µM,2 to 10 µM
"O=C(/C=C/c1nc2ccccc2[nH]1)c1c(-c2ccc(OC(F)(F)F)cc2)c2cc(Cl)ccc2[nH]c1=O [Compound 2, 3-(3-1H-Benzoimidazol-2-yl-acryloyl)-6-chloro-4-(4-trifluoromethoxy-phenyl)-1H-quinolin-2-one]",2 to 10 µM,2 to 10 µM,< 2 µM,2 to 10 µM,2 to 10 µM
"CCOC(=O)c1cncc(-c2c(C(=O)/C=C/c3ccccn3)c(=O)[nH]c3ccc(Cl)cc23)c1 [Compound 107, Ethyl 5-[3-((2E)-3-(2-pyridyl)prop-2-enoyl)-6-chloro-2-oxo-4-hydroquinolyl]pyridine-3-carboxylate]",10 to 20 µM,10 to 20 µM,2 to 10 µM,> 20 µM,10 to 20 µM
"Cc1ccc(-c2c(C(=O)/C=C/c3cncc(F)c3)c(=O)[nH]c3ccc(Cl)cc23)cc1 [Compound 85, 3-[(2E)-3-(5-fluoro(3-pyridyl))prop-2-enoyl]-6-chloro-4-(4-methylphenyl)hydroquinolin-2-one]",2 to 10 µM,2 to 10 µM,< 2 µM,2 to 10 µM,2 to 10 µM
"O=C(/C=C/c1ccccn1)c1c(-c2ccc(F)cc2)c2cc(Cl)ccc2[nH]c1=O [Compound 78, (E)-6-Chloro-4-(4-fluoro-phenyl)-3-(3-pyridin-2-yl-acryloyl)-1H-quinolin-2-one]",2 to 10 µM,2 to 10 µM,< 2 µM,2 to 10 µM,2 to 10 µM
"Cc1ccnc(/C=C/C(=O)c2c(-c3ccccc3)c3cc(Cl)ccc3[nH]c2=O)c1 [Compound 70, 3-[(2E)-3-(4-methyl(2-pyridyl))prop-2-enoyl]-6-chloro-4-phenylhydroquinolin-2-one]",2 to 10 µM,2 to 10 µM,2 to 10 µM,2 to 10 µM,2 to 10 µM
"O=C(/C=C/c1ccccn1)c1c(-c2ccc(Br)cc2)c2cc(Cl)ccc2[nH]c1=O [Compound 92, 3-((2E)-3-(2-pyridyl)prop-2-enoyl)-4-(4-bromophenyl)-6-chlorohydroquinolin-2-one]",2 to 10 µM,2 to 10 µM,< 2 µM,2 to 10 µM,2 to 10 µM
"O=C(/C=C/c1c(F)cccc1F)c1c(-c2ccccc2)c2cc(Cl)ccc2[nH]c1=O [Compound 42, 6-Chloro-3-[3-(2,6-difluoro-phenyl)-acryloyl]-4-phenyl-1H-quinolin-2-one]",2 to 10 µM,2 to 10 µM,< 2 µM,2 to 10 µM,2 to 10 µM
"O=C(/C=C/c1nc2ccccc2n1Cc1ccccc1)c1c(-c2ccccc2)c2cc(Cl)ccc2[nH]c1=O [Compound 55, 3-[3-(1-Benzyl-1H-benzoimidazol-2-yl)-acryloyl]-6-chloro-4-phenyl-1H-quinolin-2-one]",2 to 10 µM,2 to 10 µM,2 to 10 µM,2 to 10 µM,2 to 10 µM
"COCc1cncc(/C=C/C(=O)c2c(-c3ccccc3)c3cc(Cl)ccc3[nH]c2=O)c1 [Compound 73, 3-{(2E)-3-[5-(methoxymethyl)(3-pyridyl)]prop-2-enoyl}-6-chloro-4-phenylhydroquinolin-2-one]",2 to 10 µM,2 to 10 µM,< 2 µM,2 to 10 µM,2 to 10 µM
"N#Cc1cncc(-c2c(C(=O)/C=C/c3ccccn3)c(=O)[nH]c3ccc(Cl)cc23)c1 [Compound 106, 5-[3-((2E)-3-(2-pyridyl)prop-2-enoyl)-6-chloro-2-oxo-4-hydroquinolyl]pyridine-3-carbonitrile]",> 20 µM,10 to 20 µM,< 2 µM,> 20 µM,10 to 20 µM
"O=C(/C(Br)=C/c1cncc(F)c1)c1c(-c2ccccc2)c2cc(Cl)ccc2[nH]c1=O (single isomer, unassigned) [Compound 110, 3-[(2Z)-2-bromo-3-(5-fluoro(3-pyridyl))prop-2-enoyl]-6-chloro-4-phenylhydroquinolin-2-one]",2 to 10 µM,2 to 10 µM,2 to 10 µM,2 to 10 µM,2 to 10 µM
"N#Cc1cncc(-c2c(C(=O)/C=C/c3cncc(F)c3)c(=O)[nH]c3ccc(Cl)cc23)c1 [Compound 105, 5-{3-[(2E)-3-(5-fluoro(3-pyridyl))prop-2-enoyl]-6-chloro-2-oxo-4-hydroquinolyl}pyridine-3-carbonitrile]",10 to 20 µM,10 to 20 µM,2 to 10 µM,10 to 20 µM,10 to 20 µM
"O=C(/C=C/c1nc2ccccc2[nH]1)c1c(-c2cccnc2)c2cc(Cl)ccc2[nH]c1=O [Compound 6, 3-(3-1H-Benzoimidazol-2-yl-acryloyl)-6-chloro-4-pyridin-3-yl-1H-quinolin-2-one]",10 to 20 µM,10 to 20 µM,> 20 µM,2 to 10 µM,2 to 10 µM
"O=C(/C=C/c1ccoc1)c1c(-c2ccccc2)c2cc(Cl)ccc2[nH]c1=O [Compound 50, 6-Chloro-3-(3-furan-3-yl-acryloyl)-4-phenyl-1H-quinolin-2-one]",> 20 µM,> 20 µM,< 2 µM,2 to 10 µM,10 to 20 µM
"COc1cncc(/C=C/C(=O)c2c(-c3ccccc3)c3cc(Cl)ccc3[nH]c2=O)c1 [Compound 66, 3-[(2E)-3-(5-methoxy(3-pyridyl))prop-2-enoyl]-6-chloro-4-phenylhydroquinolin-2-one]",2 to 10 µM,2 to 10 µM,< 2 µM,2 to 10 µM,2 to 10 µM
O=C(/C=C/c1ccccc1)c1c(-c2cccs2)c2cc(Cl)ccc2[nH]c1=O [Compound 10],10 to 20 µM,2 to 10 µM,> 20 µM,2 to 10 µM,2 to 10 µM
"Cc1ccnc(C#CC(=O)c2c(-c3ccccc3)c3cc(Cl)ccc3[nH]c2=O)c1 [Compound 112, 6-Chloro-3-[3-(4-methyl-pyridin-2-yl)-propynoyl]-4-phenyl-1H-quinolin-2-one]",> 20 µM,> 20 µM,> 20 µM,> 20 µM,> 20 µM
"CCn1c(/C=C/C(=O)c2c(-c3ccccc3)c3cc(Cl)ccc3[nH]c2=O)nc2cc(Cl)c(Cl)cc21 [Compound 64, 6-Chloro-3-[3-(5,6-dichloro-1-ethyl-1H-benzoimidazol-2-yl)-acryloyl]-4-phenyl-1H-quinolin-2-one]",10 to 20 µM,> 20 µM,2 to 10 µM,2 to 10 µM,10 to 20 µM
"O=C(/C=C/c1ccc(Cl)s1)c1c(-c2ccccc2)c2cc(Cl)ccc2[nH]c1=O [Compound 113, 6-Chloro-3-[3-(5-chloro-thiophen-2-yl)-acryloyl]-4-phenyl-1H-quinolin-2-one]",2 to 10 µM,2 to 10 µM,2 to 10 µM,2 to 10 µM,2 to 10 µM
